Among the data in patent publication US11560400B2, “Salts of diphosphate phosphoramidate of nucleosides as anticancer compounds” (NuCana plc, priority 2017, dated 2023) are EC50, inhibition and half-life values, retold here.

Broadly, the pEC50 is −log10 of the EC50, conventionally taken in molar units. In general, half-life refers to the time needed for the level to fall by half in the phase considered. Higher therefore signals slow decline.

pEC50: −log10 of the molar value. Structures can show the parent of a compound that is named as a salt. Where two headings read alike, the source gives them in different places. A value given as a limit tells only on which side of the number the result lay.

One data set has as its system HepG2. The data set is described as follows: CellTiterGlo cell viability assay, HepG2. The class given is cell-based. In outline:
(§1)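 Cell viability was measured by CellTiterGlo luminescence after ~72 h compound exposure under standard growth conditions. Compounds were tested in duplicate at 9 points, 3.16-fold dilutions, final concentrations 198 μM to 19.8 nM, 0.5% DMSO final; absolute EC50 and percentage inhibition at top concentration were reported.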
Background: Cellular ATP, detected with luciferase, serves as a proxy for viable cell number.

The subject of a further data set is RL. Briefly: CellTiterGlo cell viability assay, RL. The class given is cell-based. Conditions: Homo sapiens, 72 h. The procedure, abridged: as §1
Another data set deals with OVCAR 3. Briefly: CellTiterGlo cell viability assay, OVCAR 3. The class given is cell-based. Conditions: Homo sapiens; for inhibition at 198 µM: percentage inhibition at the highest concentration tested, read-out: Top Inhibit; for pEC50: read-out: Ab EC50. The procedure, abridged: as §1
The subject of another data set is K562. Briefly: CellTiterGlo cell viability assay, K562. The class given is cell-based. In outline:
as §1

The subject of the next data set is HL-60. The data set is described as follows: CellTiterGlo cell viability assay, HL-60. The class given is cell-based. Conditions: Homo sapiens, HL-60, 72 h; for inhibition at 198 µM: read-out: Top Inh. The procedure, abridged: as §1
The next data set can be described thus: in vitro. Conditions: human, hepatocytes, pH 7.3.
Another data set concerns CCRF-CEM. Briefly: CellTiterGlo cell viability assay, CCRF-CEM. The class given is cell-based. Conditions: 72 h; for pEC50: read-out: Ab EC50; for inhibition at 198 µM: percentage inhibition at the highest concentration tested, read-out: Top Inh. In outline: as §1
A further data set concerns RPMI-8226. The data set is described as follows: CellTiterGlo cell viability assay, RPMI-8226. The class given is cell-based, Human. In outline: as §1
In a further data set the test system is HT29. The data set is described as follows: CellTiterGlo cell viability assay, HT29. The class given is cell-based. Conditions: Homo sapiens, HT29, 72 h; for pEC50: read-out: Ab EC50; for inhibition at 198 µM: percentage inhibition at the highest concentration tested, read-out: Top Inhibit. In outline:
as §1

For a further data set, the system named is MOLT-4. Briefly: CellTiterGlo cell viability assay, MOLT-4. The class given is cell-based. The procedure, abridged:
as §1

A further data set deals with MCF-7. The data set is described as follows: CellTiterGlo cell viability assay, MCF-7. The class given is cell-based. Conditions: MCF-7, 72 h; for pEC50: read-out: Ab EC50; for inhibition at 198 µM: percentage inhibition at the highest concentration tested, read-out: Top Inhibit. The procedure, abridged: as §1
Another data set relates to KG-1. Briefly: CellTiterGlo cell viability assay, KG-1. The class given is cell-based. The conditions noted are these: Homo sapiens, KG-1, 72 h. In outline:
as §1

Another data set relates to Mia-Pa-Ca-2. Briefly: CellTiterGlo cell viability assay, Mia-Pa-Ca-2. The class given is cell-based. Conditions: Homo sapiens, MIA PaCa-2, Mia-Pa-Ca-2, 72 h; for pEC50: absolute EC50, read-out: Ab EC50; for inhibition at 198 µM: percentage inhibition at the highest concentration tested, read-out: Top Inhibit. On the procedure:
A subset of compounds of the invention were assayed for their cytotoxic activity in an array of different solid tumours and haematological malignancies using the following assay.
In vitro viability assay were performed to assess the effects of compounds on cell viability in selected cell lines over 72 h using the CellTiterGlo (CTG, Promega-G7573) assay. The tests were performed in duplicates with treatment of compounds at 9 points, 3.16 folds titration in 96 well plates over ˜72 h. The compound starting concentrations were 198 μM. Cell viability assay using CellTiterGlo in 96-well plate were performed. Compound treatment 72 h, standard growth conditions, duplicates. Compounds were dissolved to 40 mM with thawed […]. Compounds were serially diluted at 3.16 fold in thawed DMSO, and warmed to 37° C. before being dissolved in media (2 μL+200 μL). After compounds were dissolved in media, media containing compounds were warmed to 37° C. in incubator and then compounds in media were added to cell plates (50 μL+50 μL) in duplicates. The compounds' final concentrations were from 198 μM to 19.8 nM. All compound solubilities were checked and recorded again, then the plates were transferred to CO2 tissue culture incubator immediately and incubated for 3 days. DMSO final concentration is 0.5%. The parent nucleoside in each case was tested as a comparator, as was an exemplary ProTide. The drugs of the ProTide class that were tested were as follows:
The following cell lines were tested and are referred to in the Table 1 below:
In Tables 2, 3 and 4, ‘Ab EC50’ refers to the absolute EC50 and ‘Top inhibit’ refers to the percentage inhibition achieved at the highest concentration tested.

[1] abbreviates: Table 3 classes, read-out: Ab EC50.
Where [2] appears, read: percentage inhibition at the highest concentration tested, read-out: Top Inh.
Where [3] appears, read: percentage inhibition at the highest concentration tested.
Setting [4] is: Homo sapiens, MOLT-4, 72 h, percentage inhibition at the highest concentration tested, read-out: Top Inh.
The mark [5] stands for this setting: Homo sapiens; HepG2, 72 h, percentage inhibition at the highest concentration tested; read-out: Top Inhibit.
Where [6] appears, read: absolute EC50, numeric values, read-out: Ab EC50.
The mark [7] stands for this setting: HT-29, absolute EC50, numeric values.
The mark [8] stands for this setting: Homo sapiens; MOLT-4, 72 h, absolute EC50, numeric values; read-out: Ab EC50.
The mark [9] stands for this setting: Homo sapiens; MOLT-4, 72 h, percentage inhibition at the highest concentration tested; read-out: Top Inh.

As for `Nc1nc(Cl)nc2c1ncn2[C@@H]1O[C@H](COP(=O)(O)OP(=O)(NCC(=O)OCc2ccccc2)Oc2ccccc2)C(O)[C@H]1F` (stereo partly drawn) [Example 3, 2-Chloro-9-(2′-Deoxy-2′-fluoro-β-D-arabinofuranosyl)adenine-5′-O-[phenyl(benzoxy-L-glycinyl)] Diphosphate Triethylammonium Salt], the pEC50 in the data set with HepG2 (Homo sapiens, HepG2, 72 h, Table 3 classes, read-out: Ab EC50) was 5.30 to 5.70; in the data set with RL (setting [1]), 5.70 to 6.70; in the data set on OVCAR 3 (OVCAR 3, 72 h, Table 3 classes), less than 5.00; in the data set on K562 (Homo sapiens; K562, 72 h, Table 3 classes; read-out: Ab EC50), less than 5.00; in the data set with HL-60 (setting [1]), more than 6.70; in the data set with CCRF-CEM (Homo sapiens, Table 3 classes) it was more than 6.70. Moreover, the pEC50 was 5.00 to 5.30 in the data set on RPMI-8226 (Homo sapiens, RPMI-8226, 72 h, Table 3 classes, read-out: Ab EC50); 5.70 to 6.70 with HT29 (HT-29, 72 h, Table 3 classes); more than 6.70 with MOLT-4 (Homo sapiens; MOLT-4, 72 h, Table 3 classes; read-out: Ab EC50); 5.30 to 5.70 with MCF-7 (Homo sapiens, MCF7, 72 h, Table 3 classes). Moreover, the inhibition at 198 µM in the data set on HepG2 (Homo sapiens, HepG2, 72 h, percentage inhibition at the highest concentration tested, read-out: Top Inhibit) amounted to 53%; in the data set on RL (setting [2]) it was 63%; with OVCAR 3 (OVCAR-3, 72 h) it was 49%; with K562 (Homo sapiens, K562, 72 h, percentage inhibition at the highest concentration tested; read-out: Top Inh), 24%; in the data set on HL-60 (setting [3]), 97%; in the data set with CCRF-CEM (Homo sapiens) it was 99.6%. Moreover, the inhibition at 198 µM in the data set on RPMI-8226 (Homo sapiens, RPMI-8226, 72 h, percentage inhibition at the highest concentration tested, read-out: Top Inh) worked out at 91.6%; in the data set on HT29 (HT-29, 72 h) it was 61%; with MOLT-4 (setting [4]), 96%; in the data set with MCF-7 (Homo sapiens, MCF7, 72 h) it was 59%. For the same compound, in the data set “in vitro”, the half-life lay within 20 to 100 min.

Consider `C[C@H](NP(=O)(OC[C@H]1O[C@@H](n2cnc3c(N)nc(Cl)nc32)[C@H](F)C1O)Oc1ccccc1)C(=O)OCc1ccccc1` (some centres unmarked) [A, reference compound], for which the negative-log EC50 (pEC50) with HepG2 (Homo sapiens; HepG2, 72 h, Table 4 classes; read-out: Ab EC50) was 5.00 to 5.30; in the data set with RL (read-out: Ab EC50, RL, 72 h, Table 3 classes), 5.30 to 5.70; in the data set with RL (read-out: Ab EC50, RL, 72 h, Table 4 classes), 5.30 to 6.00; with OVCAR 3 (OVCAR 3, 72 h, Table 4 classes), less than 5.00; in the data set with K562 (Homo sapiens, K562, 72 h, read-out: Ab EC50), less than 5.00; in the data set with K562 (read-out: Ab EC50; K 562, 72 h, Table 4 classes) it was less than 5.00. For the same compound, the pEC50 is 5.70 to 6.70 with HL-60 (read-out: Ab EC50, HL-60, 72 h, Table 3 classes); 6.00 to 6.70 with HL-60 (read-out: Ab EC50, HL-60, 72 h, Table 4 classes); 6.00 to 6.70 in the data set on KG-1 (read-out: Ab EC50); more than 6.70 in the data set on CCRF-CEM (Table 4 classes); more than 6.70 in the data set on CCRF-CEM (Homo sapiens, Table 3 classes); 5.30 to 5.70 with RPMI-8226 (Homo sapiens, RPMI-8226, 72 h, read-out: Ab EC50, RPMI-8226, 72 h, Table 3 classes). The pEC50 was 5.30 to 6.00 with RPMI-8226 (Homo sapiens, RPMI-8226, 72 h, read-out: Ab EC50, RPMI-8226, 72 h, Table 4 classes); 5.30 to 5.70 in the data set with HT29 (HT-29, 72 h, Table 3 classes); 5.30 to 6.00 in the data set with HT29 (HT-29, 72 h, Table 4 classes); 5.70 to 6.70 in the data set with MOLT-4 (Homo sapiens, MOLT-4, 72 h, Table 3 classes, read-out: Ab EC50); 6.00 to 6.70 in the data set with MOLT-4 (Homo sapiens, MOLT-4, 72 h, Table 4 classes, read-out: Ab EC50); 5.00 to 5.30 in the data set on MCF-7 (Homo sapiens, MCF7, Table 3 classes). In addition, the pEC50 in the data set on MCF-7 (Table 4 classes) was 5.00 to 5.30. The inhibition at 198 µM stood at 99% with HepG2 (setting [5]); 99.8% with RL (read-out: Top Inh, RL, 72 h, percentage inhibition at the highest concentration tested); 94% with OVCAR 3 (OVCAR 3, 72 h); 97% in the data set with HL-60; 93% with KG-1 (read-out: Top Inhibit); 99.4% in the data set with CCRF-CEM (Homo sapiens). Also, the inhibition at 198 µM in the data set with RPMI-8226 (Homo sapiens, RPMI-8226, 72 h, read-out: Top Inh, RPMI-8226, 72 h, percentage inhibition at the highest concentration tested) worked out at 97%; in the data set on HT29 (HT-29, 72 h) it was 94%; with MOLT-4 (setting [4]), 93%; in the data set with MCF-7 (Homo sapiens, MCF7, 72 h), 99.6%. The same compound yielded a half-life at 1 μM in “in vitro” of 24 min.

As to `Nc1ncnc2c1ncn2[C@@H]1O[C@H](CO)C[C@H]1O` [Cordycepin, reference compound], the pEC50 with RL (setting [6]) is less than 3.70; with K562 (Homo sapiens; K562, 72 h, absolute EC50, numeric values; read-out: Ab EC50), 3.93; in the data set with Mia-Pa-Ca-2, 4.07; with HL-60 (setting [6]), 3.93; in the data set on RPMI-8226 (Homo sapiens; RPMI-8226, 72 h, absolute EC50, numeric values; read-out: Ab EC50), less than 3.70; in the data set on HT29 (setting [7]) it was 4.48. In addition, the pEC50 in the data set with MOLT-4 (setting [8]) was 4.00. Moreover, the inhibition at 198 µM came out at 16.6% in the data set with RL (setting [2]); 94% in the data set with K562 (Homo sapiens; K562, 72 h, percentage inhibition at the highest concentration tested; read-out: Top Inh); 88% with Mia-Pa-Ca-2; 56% with HL-60 (setting [3]); 17% with RPMI-8226 (Homo sapiens; RPMI-8226, 72 h, percentage inhibition at the highest concentration tested; read-out: Top Inh); 87% with HT29 (HT-29). Further, the inhibition at 198 µM in the data set with MOLT-4 (setting [9]) turned out to be 76.5%. The compound further registered a half-life in the data set “in vitro” of 48 min.

Take `Nc1ccn([C@@H]2O[C@H](CO)[C@@H](O)C2(F)F)c(=O)n1` [Gemcitabine, reference compound]: the pEC50 in the data set with HepG2 (Homo sapiens; HepG2, 72 h, absolute EC50, numeric values; read-out: Ab EC50) is 4.55; in the data set on OVCAR 3 (OVCAR 3, 72 h, absolute EC50, numeric values), less than 3.70; with Mia-Pa-Ca-2 it was 7.52; in the data set with CCRF-CEM (Homo sapiens, absolute EC50, numeric values) it was 7.70; in the data set on HT29 (setting [7]) it was 6.66; in the data set with MOLT-4 (setting [8]), 8.40. Also, in the data set with MCF-7 (Homo sapiens, MCF7, absolute EC50, numeric values), the pEC50 was 7.96. Moreover, the inhibition at 198 µM worked out at 54% in the data set on HepG2 (setting [5]); 44% in the data set on OVCAR 3 (OVCAR 3, 72 h); 79% in the data set on Mia-Pa-Ca-2; 101% in the data set on CCRF-CEM (Homo sapiens); 65% with HT29 (HT-29); 88% with MOLT-4 (setting [9]). In the data set on MCF-7 (Homo sapiens, MCF7), the inhibition at 198 µM is 53%.
